Patent US6737383B1, “Herbicidal oxadiazolidines” (priority 1999, dated 2004)

Legend:
wheat = assay: Test B pre/postemergence wheat; type: in vivo, Triticum aestivum; conditions: for Wheat plant response rating: scale of 0 to 10 where 0 is no effect and 10 is complete control
How it was run: (§1)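 Response is a visual 0-to-10 score relative to untreated plants, where 0 means no effect and 10 means complete control, taken twelve to sixteen days after application. Treatments went onto soil at planting and onto foliage of 1- to 4-leaf plants, using a surfactant-containing non-phytotoxic solvent.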

smallflower flatsedge = assay: Test B flood test smallflower flatsedge; type: in vivo, Cyperus difformis
How it was run: (§2)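 Flood test on plants grown to the 2-leaf stage; treated plants kept in greenhouse twelve to sixteen days, then visually rated against controls on a 0 (no effect) to 10 (complete control) scale.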

wild oat = assay: Test B pre/postemergence wild oat; type: in vivo, Avena fatua; conditions: for Wild oats plant response rating: scale of 0 to 10 where 0 is no effect and 10 is complete control
How it was run: as §1

velvetleaf = assay: Test B pre/postemergence velvetleaf; type: in vivo, Abutilon theophrasti; conditions: for Velvetleaf plant response rating: scale of 0 to 10 where 0 is no effect and 10 is complete control
How it was run: as §1

bedstraw = assay: Test B pre/postemergence bedstraw; type: in vivo, Galium aparine
How it was run: as §1

morningglory = assay: Test B pre/postemergence morningglory; type: in vivo, Ipomoea hederacea; conditions: for Morningglory plant response rating: scale of 0 to 10 where 0 is no effect and 10 is complete control
How it was run: as §1

pigweed = assay: Test B pre/postemergence pigweed; type: in vivo, Amaranthus retroflexus; conditions: for Redroot pigweed plant response rating: scale of 0 to 10 where 0 is no effect and 10 is complete control
How it was run: as §1

rape = assay: Test B pre/postemergence rape; type: in vivo, Brassica napus; conditions: for Rape plant response rating: scale of 0 to 10 where 0 is no effect and 10 is complete control
How it was run: as §1

soybean = assay: Test B pre/postemergence soybean; type: in vivo, Glycine max; conditions: for Soybean plant response rating: scale of 0 to 10 where 0 is no effect and 10 is complete control
How it was run: as §1

duck salad = assay: Test B flood test duck salad; type: in vivo, Heteranthera limosa
How it was run: as §2

purple nutsedge = assay: Test B pre/postemergence purple nutsedge; type: in vivo, Cyperus rotundus; conditions: for Nutsedge plant response rating: scale of 0 to 10 where 0 is no effect and 10 is complete control
How it was run: as §1

rice = assay: Test B flood test rice; type: in vivo, Oryza sativa
How it was run: as §2

cocklebur = assay: Test B pre/postemergence cocklebur; type: in vivo, Xanthium strumarium; conditions: for Cocklebur plant response rating: scale of 0 to 10 where 0 is no effect and 10 is complete control
How it was run: as §1

corn = assay: Test B pre/postemergence corn; type: in vivo, Zea mays; conditions: for Corn plant response rating: scale of 0 to 10 where 0 is no effect and 10 is complete control
How it was run: as §1

giant foxtail = assay: Test B pre/postemergence giant foxtail; type: in vivo, Setaria faberii; conditions: for Giant foxtail plant response rating: scale of 0 to 10 where 0 is no effect and 10 is complete control
How it was run: as §1

crabgrass = assay: Test B pre/postemergence crabgrass; type: in vivo, Digitaria sanguinalis; conditions: for Crabgrass plant response rating: scale of 0 to 10 where 0 is no effect and 10 is complete control
How it was run: as §1

[1] = Postemergence, Rate 125 g/ha, scale 0 to 10, 0 is no effect, 10 is complete control
[2] = Preemergence, Rate 62 g/ha, scale 0 to 10 (0 no effect, 10 complete control)
[3] = Rate 500 g/ha, Postemergence, scale 0 to 10, 0 no effect, 10 complete control
[4] = Postemergence (flood test), Rate 125 g/ha, scale 0 to 10, 0 is no effect, 10 is complete control
[5] = Rate 62 g/ha, Postemergence (flood test species), scale of 0 to 10 where 0 is no effect and 10 is complete control
[6] = Rate 500 g/ha, listed under Postemergence (flood test species), scale 0 to 10, 0 no effect, 10 complete control

Compound: COCC(C)n1c(=O)on(C(=O)N(c2ccc(F)cc2F)C(C)C)c1=O (centres unmarked) [Compound 357]
- Plant response rating, Wheat (wheat; [1]): 5
- Plant response rating, Wheat (wheat; [2]): 4
- Wheat plant response rating (0 to 10 scale) (wheat; Preemergence, Rate 125 g/ha): 6
- Wheat plant response rating (wheat; Preemergence, Rate 250 g/ha): 9
- Wheat plant response rating (wheat; Preemergence, Rate 500 g/ha): 9
- Wheat plant response rating (wheat; Rate 62 g/ha, Postemergence): 4
- Plant response rating, Wheat (wheat; [3]): 7
- Plant response rating, S. Flatsedge (smallflower flatsedge; [4]): 0
- S. Flatsedge plant response rating (smallflower flatsedge; [5]): 0
- Plant response rating, S. Flatsedge (smallflower flatsedge; [6]): 8
- Plant response rating, Wild oats (wild oat; [1]): 4
- Plant response rating, Wild oats (wild oat; [2]): 9
- Wild oats plant response rating (0 to 10 scale) (wild oat; Preemergence, Rate 125 g/ha): 10
- Wild oats plant response rating (wild oat; Preemergence, Rate 250 g/ha): 10
- Wild oats plant response rating (wild oat; Preemergence, Rate 500 g/ha): 10
- Wild oats plant response rating (wild oat; Rate 62 g/ha, Postemergence): 3
- Plant response rating, Wild oats (wild oat; [3]): 6
- Plant response rating, Velvetleaf (velvetleaf; [1]): 2
- Plant response rating, Velvetleaf (velvetleaf; [2]): 4
- Velvetleaf plant response rating (0 to 10 scale) (velvetleaf; Preemergence, Rate 125 g/ha): 5
- Velvetleaf plant response rating (velvetleaf; Preemergence, Rate 250 g/ha): 5
- Velvetleaf plant response rating (velvetleaf; Preemergence, Rate 500 g/ha): 7
- Velvetleaf plant response rating (velvetleaf; Rate 62 g/ha, Postemergence): 2
- Plant response rating, Velvetleaf (velvetleaf; [3]): 4
- Plant response rating, Bedstraw (bedstraw; [1]): 0
- Plant response rating, Bedstraw (bedstraw; [2]): 10
- Bedstraw plant response rating (0 to 10 scale) (bedstraw; Preemergence, Rate 125 g/ha): 10
- Bedstraw plant response rating (bedstraw; Preemergence, Rate 250 g/ha, scale of 0 to 10 where 0 is no effect and 10 is complete control): 10
- Bedstraw plant response rating (bedstraw; Preemergence, Rate 500 g/ha, scale of 0 to 10 where 0 is no effect and 10 is complete control): 10
- Bedstraw plant response rating (bedstraw; Rate 62 g/ha, Postemergence, scale of 0 to 10 where 0 is no effect and 10 is complete control): 0
- Plant response rating, Bedstraw (bedstraw; Rate 250 g/ha, Postemergence, scale of 0 to 10 where 0 is no effect and 10 is complete control): 0
- Plant response rating, Bedstraw (bedstraw; [3]): 5
- Plant response rating, Morningglory (morningglory; [1]): 2
- Plant response rating, Morningglory (morningglory; [2]): 0
- Morningglory plant response rating (0 to 10 scale) (morningglory; Preemergence, Rate 125 g/ha): 2
- Morningglory plant response rating (morningglory; Preemergence, Rate 250 g/ha): 2
- Morningglory plant response rating (morningglory; Preemergence, Rate 500 g/ha): 7
- Morningglory plant response rating (morningglory; Rate 62 g/ha, Postemergence): 2
- Plant response rating, Morningglory (morningglory; [3]): 8
- Plant response rating, Redroot pigweed (pigweed; [1]): 0
- Plant response rating, Redroot pigweed (pigweed; [2]): 7
- Redroot pigweed plant response rating (0 to 10 scale) (pigweed; Preemergence, Rate 125 g/ha): 10
- Redroot pigweed plant response rating (pigweed; Preemergence, Rate 250 g/ha): 10
- Redroot pigweed plant response rating (pigweed; Preemergence, Rate 500 g/ha): 10
- Redroot pigweed plant response rating (pigweed; Rate 62 g/ha, Postemergence): 0
- Plant response rating, Redroot pigweed (pigweed; [3]): 8
- Plant response rating, Rape (rape; [1]): 0
- Plant response rating, Rape (rape; [2]): 0
- Rape plant response rating (0 to 10 scale) (rape; Preemergence, Rate 125 g/ha): 2
- Rape plant response rating (rape; Preemergence, Rate 250 g/ha): 8
- Rape plant response rating (rape; Preemergence, Rate 500 g/ha): 8
- Rape plant response rating (rape; Rate 62 g/ha, Postemergence): 0
- Plant response rating, Rape (rape; [3]): 4
- Plant response rating, Soybean (soybean; [1]): 2
- Plant response rating, Soybean (soybean; [2]): 0
- Soybean plant response rating (0 to 10 scale) (soybean; Preemergence, Rate 125 g/ha): 0
- Soybean plant response rating (soybean; Preemergence, Rate 250 g/ha): 0
- Soybean plant response rating (soybean; Preemergence, Rate 500 g/ha): 0
- Soybean plant response rating (soybean; Rate 62 g/ha, Postemergence): 2
- Plant response rating, Soybean (soybean; [3]): 3
- Plant response rating, Ducksalad (duck salad; [4]): 0
- Ducksalad plant response rating (duck salad; [5]): 0
- Plant response rating, Ducksalad (duck salad; [6]): 2
- Plant response rating, Nutsedge (purple nutsedge; [1]): 0
- Plant response rating, Nutsedge (purple nutsedge; [2]): 0
- Nutsedge plant response rating (0 to 10 scale) (purple nutsedge; Preemergence, Rate 125 g/ha): 0
- Nutsedge plant response rating (purple nutsedge; Preemergence, Rate 250 g/ha): 0
- Nutsedge plant response rating (purple nutsedge; Preemergence, Rate 500 g/ha): 6
- Nutsedge plant response rating (purple nutsedge; Rate 62 g/ha, Postemergence): 0
- Plant response rating, Nutsedge (purple nutsedge; [3]): 2
- Plant response rating, Rice (rice; [4]): 0
- Rice plant response rating (rice; [5]): 0
- Plant response rating, Rice (rice; [6]): 2
- Plant response rating, Cocklebur (cocklebur; [1]): 0
- Plant response rating, Cocklebur (cocklebur; [2]): 0
- Cocklebur plant response rating (0 to 10 scale) (cocklebur; Preemergence, Rate 125 g/ha): 0
- Cocklebur plant response rating (cocklebur; Preemergence, Rate 250 g/ha): 0
- Cocklebur plant response rating (cocklebur; Preemergence, Rate 500 g/ha): 0
- Cocklebur plant response rating (cocklebur; Rate 62 g/ha, Postemergence): 0
- Plant response rating, Cocklebur (cocklebur; [3]): 2
- Plant response rating, Corn (corn; [1]): 0
- Plant response rating, Corn (corn; [2]): 0
- Corn plant response rating (0 to 10 scale) (corn; Preemergence, Rate 125 g/ha): 0
- Corn plant response rating (corn; Preemergence, Rate 250 g/ha): 6
- Corn plant response rating (corn; Preemergence, Rate 500 g/ha): 9
- Corn plant response rating (corn; Rate 62 g/ha, Postemergence): 0
- Plant response rating, Corn (corn; [3]): 3
- Plant response rating, Giant foxtail (giant foxtail; [1]): 8
- Plant response rating, Giant foxtail (giant foxtail; [2]): 10
- Giant foxtail plant response rating (0 to 10 scale) (giant foxtail; Preemergence, Rate 125 g/ha): 10
- Giant foxtail plant response rating (giant foxtail; Preemergence, Rate 250 g/ha): 10
- Giant foxtail plant response rating (giant foxtail; Preemergence, Rate 500 g/ha): 10
- Giant foxtail plant response rating (giant foxtail; Rate 62 g/ha, Postemergence): 8
- Plant response rating, Giant foxtail (giant foxtail; [3]): 9
- Plant response rating, Crabgrass (crabgrass; [1]): 2
- Plant response rating, Crabgrass (crabgrass; [2]): 9
- Crabgrass plant response rating (0 to 10 scale) (crabgrass; Preemergence, Rate 125 g/ha): 9
- Crabgrass plant response rating (crabgrass; Preemergence, Rate 250 g/ha): 9
- Crabgrass plant response rating (crabgrass; Preemergence, Rate 500 g/ha): 10
- Crabgrass plant response rating (crabgrass; Rate 62 g/ha, Postemergence): 2
- Plant response rating, Crabgrass (crabgrass; [3]): 5
